Laboratory results from patent publication US20260053811A1, “METHODS OF TREATING HYPERTENSION IN OBESE SUBJECTS” (Mineralys Therapeutics, Inc., priority 2022, published 2026).

Tested on: hypertensive subjects
Assay: Seated automated office blood pressure (AOBP) in randomized, placebo-controlled, dose-ranging study
Assay type: in vivo, human
Details: 100 mg QD, FAS; for Seated AOBP DBP change from baseline (CFB), Mean / Seated AOBP DBP, Mean / Seated AOBP SBP change from baseline (CFB), Mean / Seated AOBP SBP, Mean: Part 2
Description: A randomized, double-blinded, placebo-controlled, dose-ranging, multicenter study was conducted to evaluate the effect of orally administered Compound A HBr on blood pressure for the treatment of hypertension in male and female subjects ≥18 years of age.
The study consists of two parts. For enrollment into Part 1 of the study, a subject's value of plasma renin activity (PRA) must be ≤1 ng/mL/h based on morning measurement. If the value of PRA >1 ng/mL/h based on morning measurement, then subjects may be eligible to enter Part 2 of the study.
For Part 1, 163 enrolled subjects ≥18 years of age were randomized into 6 equal treatment groups (1:1:1:1:1:1) to 12.5 mg BID, 25 mg BID, 12.5 mg QD, 50 mg QD, 100 mg QD, or placebo. After a review of interim clinical data, the 2 lowest dose levels (12.5 mg QD and 12.5 mg BID) were stopped for future randomization due to a lack of consistent meaningful reduction of blood pressure, but the patients randomized to that point remained in the study through completion. Thus, after the review of interim clinical data, subjects were randomized into 4 equal treatment groups (1:1:1:1) to 25 mg BID, 50 mg QD, 100 mg QD, or placebo.
For Part 2, 36 enrolled subjects ≥18 years of age were randomized (5:1) to either 100 mg QD Compound A HBr or placebo such that the Compound A HBr treatment group consisted of approximately 30 subjects and the placebo treatment group will consist of approximately 6 subjects.
Subjects orally administered the assigned study drug (Compound A HBr or placebo) according to the assigned dosing regimen for 8 weeks beginning on Study Day 1. All subjects in Part 1 (regardless of dosing group) received BID dosing to preserve the integrity of the blind; active drug is administered as the morning dose for all QD dose groups. Subjects returned to the research facility or were seen by the clinical investigator or approved home health care professional at the end of Study Weeks 1, 2, 3, 4, 5, 6, 7, and 8 (±2 days) for protocol-defined efficacy and safety assessments and procedures, assessment of adverse events (AEs), and confirmation of compliance with study drug usage. Subjects also completed a telephone visit and blood pressure (BP) check at home approximately 3 days post last dose of study drug. Subjects attended up to 14 full clinic visits, including a pre-Screening visit, a Screening/start of Placebo Run-in visit, a second visit during Placebo Run-in, a clinic visit to initiate the ABPM procedure, a Randomization visit, 8 weekly visits during double-blind treatment, and an end-of-study visit scheduled 4 weeks after the last study treatment for final efficacy and safety assessments.
An automated oscillometric sphygmomanometer device was used to measure the subjects' systolic and diastolic blood pressure in office after approximately 5 minutes of rest in the seated position.
The primary endpoint is the change in office-measured (mean of last 2 of 5 unattended measurements using an automated oscillometric sphygmomanometer device after approximately 5 minutes of rest in the seated position) systolic blood pressure (SBP) from baseline to the end of Study Week 8.
Secondary endpoints of this study were: • (a) Change in 24-hour ambulatory blood pressure monitoring (ABPM) parameters (systolic and diastolic) from baseline to the end of Study Week 7. • (b) Change in office-measured SBP from baseline to the end of Study Weeks 1, 2, 3, 4, 5, 6, and 7. • (c) Change in office-measured diastolic blood pressure (DBP) from baseline to the end of Study Weeks 1, 2, 3, 4, 5, 6, 7, and 8. • (d) Proportion of subjects who achieve office-measured BP of ≤130/80 mm Hg by the end of Study Week 8.

Question: `CC(=O)N[C@H]1CC[C@H](NC(=O)CN2CCN(c3nncc(-c4ccc(C)cc4)n3)CC2)CC1` [Compound A HBr] was tested. Which “Seated AOBP DBP change from baseline (CFB), Mean (SD)” value (“Seated AOBP DBP change … (SD)” for short) (Week 4, Part 1) did it give?
Answer: Its value is −6.36 (6.75) mmHg.

Question: What about the “Seated AOBP DBP, Mean (SD)” value (Week 4, Part 1) of the same compound?
Answer: The value was 71.60 (8.62) mmHg.

Question: And the “Seated AOBP SBP change from baseline (CFB), Mean (SD)” value (“Seated AOBP SBP change … (SD)” below) (Week 4, Part 1)?
Answer: Its value is −14.60 (11.66) mmHg.

Question: What about the “Seated AOBP SBP, Mean (SD)” value (Week 4, Part 1) of the same compound?
Answer: Its value is 129.76 (12.66) mmHg.

Question: And the “Seated AOBP DBP change from baseline (CFB), Mean” value (Week 4)?
Answer: The value was −6.92 mmHg.

Question: And the “Seated AOBP DBP, Mean” value (Week 4)?
Answer: Its value is 71.36 mmHg.

Question: What about the “Seated AOBP SBP change from baseline (CFB), Mean” value (Week 4) of the same compound?
Answer: Its value is −16.04 mmHg.

Question: And the “Seated AOBP SBP, Mean” value (Week 4)?
Answer: Its value is 125.44 mmHg.

Question: And the “Seated AOBP DBP change … (SD)” value (Week 5, Part 1)?
Answer: Its value is −5.36 (8.12) mmHg.

Question: And the “Seated AOBP DBP, Mean (SD)” value (Week 5, Part 1)?
Answer: Its value is 72.60 (11.27) mmHg.

Question: What about the “Seated AOBP SBP change … (SD)” value (Week 5, Part 1) of the same compound?
Answer: Its value is −13.40 (16.59) mmHg.

Question: And the “Seated AOBP SBP, Mean (SD)” value (Week 5, Part 1)?
Answer: The value was 130.96 (14.84) mmHg.

Question: What about the “Seated AOBP DBP change from baseline (CFB), Mean” value (Week 5) of the same compound?
Answer: The value was −6.35 mmHg.

Question: What about the “Seated AOBP DBP, Mean” value (Week 5) of the same compound?
Answer: Its value is 71.31 mmHg.

Question: What about the “Seated AOBP SBP change from baseline (CFB), Mean” value (Week 5) of the same compound?
Answer: Its value is −12.87 mmHg.

Question: What about the “Seated AOBP SBP, Mean” value (Week 5) of the same compound?
Answer: Its value is 127.92 mmHg.

Question: What about the “Seated AOBP DBP change … (SD)” value (Week 6, Part 1) of the same compound?
Answer: The value was −3.33 (7.96) mmHg.

Question: And the “Seated AOBP DBP, Mean (SD)” value (Week 6, Part 1)?
Answer: Its value is 74.77 (10.12) mmHg.

Question: And the “Seated AOBP SBP change … (SD)” value (Week 6, Part 1)?
Answer: The value was −6.62 (15.69) mmHg.

Question: What about the “Seated AOBP SBP, Mean (SD)” value (Week 6, Part 1) of the same compound?
Answer: Its value is 138.73 (14.13) mmHg.

Question: And the “Seated AOBP DBP change from baseline (CFB), Mean” value (Week 6)?
Answer: Its value is −7.25 mmHg.

Question: What about the “Seated AOBP DBP, Mean” value (Week 6) of the same compound?
Answer: Its value is 70.65 mmHg.

Question: And the “Seated AOBP SBP change from baseline (CFB), Mean” value (Week 6)?
Answer: Its value is −13.29 mmHg.

Question: What about the “Seated AOBP SBP, Mean” value (Week 6) of the same compound?
Answer: Its value is 127.58 mmHg.

Question: What about the “Seated AOBP DBP change … (SD)” value (Week 7, Part 1) of the same compound?
Answer: The value was −4.12 (8.55) mmHg.

Question: And the “Seated AOBP DBP, Mean (SD)” value (Week 7, Part 1)?
Answer: The value was 73.48 (11.08) mmHg.

Question: And the “Seated AOBP SBP change … (SD)” value (Week 7, Part 1)?
Answer: The value was −11.04 (16.75) mmHg.

Question: And the “Seated AOBP SBP, Mean (SD)” value (Week 7, Part 1)?
Answer: Its value is 134.32 (18.32) mmHg.

Question: What about the “Seated AOBP DBP change from baseline (CFB), Mean” value (Week 7) of the same compound?
Answer: The value was −6.13 mmHg.

Question: And the “Seated AOBP DBP, Mean” value (Week 7)?
Answer: The value was 71.61 mmHg.

Question: And the “Seated AOBP SBP change from baseline (CFB), Mean” value (Week 7)?
Answer: Its value is −11.66 mmHg.

Question: What about the “Seated AOBP SBP, Mean” value (Week 7) of the same compound?
Answer: Its value is 128.75 mmHg.

Question: And the “LSM Δ from Placebo, change from baseline in seated AOBP SBP (MMRM)” value (Week 8, Part 1)?
Answer: The value was −7.81 mmHg.

Question: What about the “LSM Δ with Placebo, seated AOBP DBP (MMRM)” value (Week 8, Part 1) of the same compound?
Answer: The value was −4.11 mmHg.

Question: What about the “Modelled (MMRM) LSM (SEM) change from baseline, seated AOBP DBP” value (Week 8, Part 1) of the same compound?
Answer: Its value is −5.75 (1.77) mmHg.

Question: And the “Modelled (MMRM) LSM (SEM) change from baseline, seated AOBP SBP” value (Week 8, Part 1)?
Answer: Its value is −11.92 (2.77) mmHg.

Question: And the “Seated AOBP DBP change … (SD)” value (Week 8, Part 1)?
Answer: Its value is −5.46 (7.85) mmHg.

Question: What about the “Seated AOBP DBP, Mean (SD)” value (Week 8, Part 1) of the same compound?
Answer: The value was 73.00 (9.43) mmHg.

Question: And the “Seated AOBP SBP change … (SD)” value (Week 8, Part 1)?
Answer: The value was −14.08 (13.26) mmHg.

Question: What about the “Seated AOBP SBP, Mean (SD)” value (Week 8, Part 1) of the same compound?
Answer: The value was 131.28 (14.13) mmHg.

Question: And the “Subjects with seated AOBP SBP/DBP ≤130/80 mmHg: No” value (Week 8, Part 1)?
Answer: The value was 21 (70.0) n (%).

Question: What about the “Subjects with seated AOBP SBP/DBP ≤130/80 mmHg: Yes” value (Week 8, Part 1) of the same compound?
Answer: The value was 9 (30.0) n (%).

Question: And the “Seated AOBP DBP change from baseline (CFB), Mean” value (Week 8)?
Answer: Its value is −5.68 mmHg.

Question: What about the “Seated AOBP DBP, Mean” value (Week 8) of the same compound?
Answer: The value was 72.17 mmHg.

Question: What about the “Seated AOBP SBP change from baseline (CFB), Mean” value (Week 8) of the same compound?
Answer: The value was −11.20 mmHg.

Question: And the “Seated AOBP SBP, Mean” value (Week 8)?
Answer: The value was 129.30 mmHg.
